Data taken from ChEMBL document CHEMBL1201862, “PubChem BioAssay data set” (2004).
The source made the active and inactive calls.

Legend:
[1] = biological target: T1, 1-phosphatidylinositol 4,5-bisphosphate phosphodiesterase gamma-1 (Homo sapiens, UniProt P19174); assay: Counterscreen for inhibitors of phospholipase C isozymes (PLC-B3): Fluorescence-based biochemical high throughput dose response assay to identify inhibitors of phospholipase C isozymes (PLC-gamma1).
T1 sequence (P19174 whole entry): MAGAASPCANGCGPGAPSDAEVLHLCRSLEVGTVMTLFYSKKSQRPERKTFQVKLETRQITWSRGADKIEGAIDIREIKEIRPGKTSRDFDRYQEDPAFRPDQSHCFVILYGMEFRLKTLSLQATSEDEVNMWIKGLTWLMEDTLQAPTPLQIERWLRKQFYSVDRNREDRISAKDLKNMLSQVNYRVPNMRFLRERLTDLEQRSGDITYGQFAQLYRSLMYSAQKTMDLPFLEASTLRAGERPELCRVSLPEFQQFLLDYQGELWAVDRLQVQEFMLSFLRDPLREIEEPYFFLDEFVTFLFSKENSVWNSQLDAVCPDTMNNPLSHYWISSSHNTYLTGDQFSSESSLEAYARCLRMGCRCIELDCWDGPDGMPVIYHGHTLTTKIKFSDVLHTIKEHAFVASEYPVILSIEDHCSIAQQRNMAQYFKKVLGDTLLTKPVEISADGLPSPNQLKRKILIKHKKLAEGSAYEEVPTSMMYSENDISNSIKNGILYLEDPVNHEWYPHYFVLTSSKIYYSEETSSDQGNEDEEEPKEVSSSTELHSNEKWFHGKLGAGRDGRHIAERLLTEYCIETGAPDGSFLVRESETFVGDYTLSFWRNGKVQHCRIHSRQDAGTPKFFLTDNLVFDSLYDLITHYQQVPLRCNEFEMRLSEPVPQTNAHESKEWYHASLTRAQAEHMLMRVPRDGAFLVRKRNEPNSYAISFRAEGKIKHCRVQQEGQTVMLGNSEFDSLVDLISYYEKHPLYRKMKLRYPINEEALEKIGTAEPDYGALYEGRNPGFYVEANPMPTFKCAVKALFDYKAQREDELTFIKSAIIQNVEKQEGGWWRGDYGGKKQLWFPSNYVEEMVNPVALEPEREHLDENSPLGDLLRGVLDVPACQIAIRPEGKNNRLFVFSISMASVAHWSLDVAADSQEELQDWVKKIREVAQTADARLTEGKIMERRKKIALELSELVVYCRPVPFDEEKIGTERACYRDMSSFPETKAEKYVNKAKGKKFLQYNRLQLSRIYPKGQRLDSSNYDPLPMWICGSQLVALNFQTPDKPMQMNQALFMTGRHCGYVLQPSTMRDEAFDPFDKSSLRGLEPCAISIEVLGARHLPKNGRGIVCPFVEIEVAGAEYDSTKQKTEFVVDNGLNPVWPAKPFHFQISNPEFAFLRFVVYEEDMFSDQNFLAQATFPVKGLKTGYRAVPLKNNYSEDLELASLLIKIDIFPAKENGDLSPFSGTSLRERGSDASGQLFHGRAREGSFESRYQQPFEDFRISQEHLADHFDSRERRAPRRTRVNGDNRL

[2] = biological target: T2, Caspase-3 (Homo sapiens, UniProt P42574); format: functional;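 also: Dose-response selectivity test against caspase-3 for candidate inhibitors of sentrin-specific proteases (SENPs)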
T2 sequence (P42574 whole entry): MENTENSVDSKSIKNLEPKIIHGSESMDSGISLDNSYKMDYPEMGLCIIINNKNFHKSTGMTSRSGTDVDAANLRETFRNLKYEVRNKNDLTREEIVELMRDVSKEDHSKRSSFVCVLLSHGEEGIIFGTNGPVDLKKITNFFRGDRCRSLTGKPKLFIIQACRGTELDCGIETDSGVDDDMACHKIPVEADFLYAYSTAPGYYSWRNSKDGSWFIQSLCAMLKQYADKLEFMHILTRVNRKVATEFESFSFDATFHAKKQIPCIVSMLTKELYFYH

[3] = biological target: T3, Sentrin-specific protease 8 (Homo sapiens, UniProt Q96LD8); format: functional;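 also: luminescence read-out of SENP8 inhibition, dose-response confirmation following an ultra-high-throughput screen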
T3 sequence (Q96LD8 whole entry): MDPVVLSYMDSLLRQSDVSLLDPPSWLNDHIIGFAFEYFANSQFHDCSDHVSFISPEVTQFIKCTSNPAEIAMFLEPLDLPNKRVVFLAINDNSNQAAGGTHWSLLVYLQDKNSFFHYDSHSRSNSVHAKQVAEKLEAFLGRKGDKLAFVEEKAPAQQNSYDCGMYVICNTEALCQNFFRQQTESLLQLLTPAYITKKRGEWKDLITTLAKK

[4] = Luminescence Cell-Based Dose Retest to Confirm Inhibitors of Cancer Stem Cells. [Related pubchem assays (depositor defined):AID2717, AID2721]; format: functional; details: Homo sapiens
[5] = Shn3 3'UTR reporter inhibitors, dose response, cell-based, Clone20 osteoblasts, firefly luciferase, cherry-picked (AID 624132); format: functional;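 also: firefly luciferase luminescence from reporter carrying the Shn3 3'UTR in osteoblasts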
[6] = biological target: Calcium/calmodulin-dependent protein kinase type II subunit gamma (Homo sapiens, UniProt Q13555); format: functional
Sequence of Calcium/calmodulin-dependent protein kinase type II subunit gamma (Q13555 whole entry): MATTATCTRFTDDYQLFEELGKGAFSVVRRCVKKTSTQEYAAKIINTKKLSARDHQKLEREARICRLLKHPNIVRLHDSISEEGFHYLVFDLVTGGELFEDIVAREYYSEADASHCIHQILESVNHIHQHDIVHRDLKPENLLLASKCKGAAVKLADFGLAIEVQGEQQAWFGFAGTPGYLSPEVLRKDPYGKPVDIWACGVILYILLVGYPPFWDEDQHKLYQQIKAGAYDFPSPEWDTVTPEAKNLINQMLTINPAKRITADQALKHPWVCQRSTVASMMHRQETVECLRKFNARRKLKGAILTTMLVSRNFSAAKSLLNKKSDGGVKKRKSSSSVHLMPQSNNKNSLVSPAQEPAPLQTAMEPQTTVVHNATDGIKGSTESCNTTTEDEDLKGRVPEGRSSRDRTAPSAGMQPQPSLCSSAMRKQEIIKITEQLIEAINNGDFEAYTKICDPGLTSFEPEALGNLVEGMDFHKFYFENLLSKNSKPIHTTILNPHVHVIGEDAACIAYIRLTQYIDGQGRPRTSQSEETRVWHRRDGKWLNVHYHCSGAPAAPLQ

[7] = biological target: Tyrosine-protein kinase Lck (Homo sapiens, UniProt P06239); format: functional;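 also: lck was assayed as one member of a kinase panel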
Sequence of Tyrosine-protein kinase Lck (P06239 whole entry): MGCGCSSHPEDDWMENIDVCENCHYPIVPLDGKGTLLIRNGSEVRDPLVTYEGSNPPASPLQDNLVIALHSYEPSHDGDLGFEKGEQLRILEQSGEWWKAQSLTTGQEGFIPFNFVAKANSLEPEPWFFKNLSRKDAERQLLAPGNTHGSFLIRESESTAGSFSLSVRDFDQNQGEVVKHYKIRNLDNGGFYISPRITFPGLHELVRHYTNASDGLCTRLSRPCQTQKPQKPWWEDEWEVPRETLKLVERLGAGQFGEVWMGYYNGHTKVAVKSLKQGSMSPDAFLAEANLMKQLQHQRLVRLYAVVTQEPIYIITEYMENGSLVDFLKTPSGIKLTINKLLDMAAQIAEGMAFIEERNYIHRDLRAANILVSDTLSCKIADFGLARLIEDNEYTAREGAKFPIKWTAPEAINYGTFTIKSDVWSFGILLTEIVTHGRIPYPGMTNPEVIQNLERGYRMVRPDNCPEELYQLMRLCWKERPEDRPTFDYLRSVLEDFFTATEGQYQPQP

[8] = biological target: Death-associated protein kinase 3 (Homo sapiens, UniProt O43293); format: functional;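 also: measured as one member of a kinome-wide profiling panel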
[9] = biological target: Serine/threonine-protein kinase Chk2 (Homo sapiens, UniProt O96017); format: functional;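 also: CHEK2 entry within a kinome-wide screening panel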
Sequence of Serine/threonine-protein kinase Chk2 (O96017 whole entry): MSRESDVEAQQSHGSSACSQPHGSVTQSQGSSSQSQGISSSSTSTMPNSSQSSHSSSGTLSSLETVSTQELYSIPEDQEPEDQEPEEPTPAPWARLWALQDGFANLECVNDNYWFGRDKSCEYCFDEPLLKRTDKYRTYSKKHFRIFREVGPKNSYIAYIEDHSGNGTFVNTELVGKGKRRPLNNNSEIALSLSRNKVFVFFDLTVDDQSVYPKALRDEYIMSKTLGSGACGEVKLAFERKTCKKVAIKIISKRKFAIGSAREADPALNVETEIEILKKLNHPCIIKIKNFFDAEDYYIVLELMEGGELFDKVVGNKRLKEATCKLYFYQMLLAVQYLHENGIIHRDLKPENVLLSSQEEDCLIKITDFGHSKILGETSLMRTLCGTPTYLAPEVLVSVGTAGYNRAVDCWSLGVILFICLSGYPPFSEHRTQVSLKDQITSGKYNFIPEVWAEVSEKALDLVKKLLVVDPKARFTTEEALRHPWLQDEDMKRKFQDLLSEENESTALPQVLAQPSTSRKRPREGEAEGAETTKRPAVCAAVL

[10] = biological target: Casein kinase II subunit alpha (Homo sapiens, UniProt P68400); format: functional
Sequence of Casein kinase II subunit alpha (P68400 whole entry): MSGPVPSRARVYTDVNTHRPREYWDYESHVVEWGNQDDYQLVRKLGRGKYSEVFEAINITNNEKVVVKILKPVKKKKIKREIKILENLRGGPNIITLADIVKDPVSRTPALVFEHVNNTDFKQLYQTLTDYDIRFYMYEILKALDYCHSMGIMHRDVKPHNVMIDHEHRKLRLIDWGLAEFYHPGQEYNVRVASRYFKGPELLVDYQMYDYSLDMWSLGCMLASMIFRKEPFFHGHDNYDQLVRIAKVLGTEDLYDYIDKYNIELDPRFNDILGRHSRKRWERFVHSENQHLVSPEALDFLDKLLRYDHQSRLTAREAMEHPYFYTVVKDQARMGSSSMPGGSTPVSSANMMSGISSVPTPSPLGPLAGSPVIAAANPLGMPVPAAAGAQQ

[11] = biological target: Serine/threonine-protein kinase Nek2 (Homo sapiens, UniProt P51955); format: functional
Sequence of Serine/threonine-protein kinase Nek2 (P51955 whole entry): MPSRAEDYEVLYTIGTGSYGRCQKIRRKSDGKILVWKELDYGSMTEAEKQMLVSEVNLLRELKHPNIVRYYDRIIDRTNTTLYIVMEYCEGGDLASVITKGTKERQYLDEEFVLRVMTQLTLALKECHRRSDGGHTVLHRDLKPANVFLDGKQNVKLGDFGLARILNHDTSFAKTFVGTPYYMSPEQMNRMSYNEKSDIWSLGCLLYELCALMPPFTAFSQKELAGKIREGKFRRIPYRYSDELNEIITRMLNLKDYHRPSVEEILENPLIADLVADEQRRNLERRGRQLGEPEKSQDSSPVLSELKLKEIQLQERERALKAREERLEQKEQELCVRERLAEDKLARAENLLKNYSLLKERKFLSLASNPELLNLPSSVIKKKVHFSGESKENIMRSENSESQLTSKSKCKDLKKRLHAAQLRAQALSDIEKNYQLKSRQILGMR

[12] = biological target: Cyclin-dependent kinase 7 (Homo sapiens, UniProt P50613); format: functional;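 also: value comes from a kinome-wide kinase profiling panel in which CDK7 is one member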
Sequence of Cyclin-dependent kinase 7 (P50613 whole entry): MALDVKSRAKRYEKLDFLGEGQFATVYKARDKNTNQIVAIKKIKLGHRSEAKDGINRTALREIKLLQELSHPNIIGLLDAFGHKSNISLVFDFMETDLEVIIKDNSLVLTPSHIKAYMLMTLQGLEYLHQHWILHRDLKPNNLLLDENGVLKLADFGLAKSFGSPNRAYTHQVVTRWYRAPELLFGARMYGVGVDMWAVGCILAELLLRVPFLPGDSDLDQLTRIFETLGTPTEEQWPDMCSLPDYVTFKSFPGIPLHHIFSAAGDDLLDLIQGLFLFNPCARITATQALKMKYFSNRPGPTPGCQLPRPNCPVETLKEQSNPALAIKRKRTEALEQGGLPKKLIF

[13] = biological target: STE20-like serine/threonine-protein kinase (Homo sapiens, UniProt Q9H2G2); format: functional
Sequence of STE20-like serine/threonine-protein kinase (Q9H2G2 whole entry): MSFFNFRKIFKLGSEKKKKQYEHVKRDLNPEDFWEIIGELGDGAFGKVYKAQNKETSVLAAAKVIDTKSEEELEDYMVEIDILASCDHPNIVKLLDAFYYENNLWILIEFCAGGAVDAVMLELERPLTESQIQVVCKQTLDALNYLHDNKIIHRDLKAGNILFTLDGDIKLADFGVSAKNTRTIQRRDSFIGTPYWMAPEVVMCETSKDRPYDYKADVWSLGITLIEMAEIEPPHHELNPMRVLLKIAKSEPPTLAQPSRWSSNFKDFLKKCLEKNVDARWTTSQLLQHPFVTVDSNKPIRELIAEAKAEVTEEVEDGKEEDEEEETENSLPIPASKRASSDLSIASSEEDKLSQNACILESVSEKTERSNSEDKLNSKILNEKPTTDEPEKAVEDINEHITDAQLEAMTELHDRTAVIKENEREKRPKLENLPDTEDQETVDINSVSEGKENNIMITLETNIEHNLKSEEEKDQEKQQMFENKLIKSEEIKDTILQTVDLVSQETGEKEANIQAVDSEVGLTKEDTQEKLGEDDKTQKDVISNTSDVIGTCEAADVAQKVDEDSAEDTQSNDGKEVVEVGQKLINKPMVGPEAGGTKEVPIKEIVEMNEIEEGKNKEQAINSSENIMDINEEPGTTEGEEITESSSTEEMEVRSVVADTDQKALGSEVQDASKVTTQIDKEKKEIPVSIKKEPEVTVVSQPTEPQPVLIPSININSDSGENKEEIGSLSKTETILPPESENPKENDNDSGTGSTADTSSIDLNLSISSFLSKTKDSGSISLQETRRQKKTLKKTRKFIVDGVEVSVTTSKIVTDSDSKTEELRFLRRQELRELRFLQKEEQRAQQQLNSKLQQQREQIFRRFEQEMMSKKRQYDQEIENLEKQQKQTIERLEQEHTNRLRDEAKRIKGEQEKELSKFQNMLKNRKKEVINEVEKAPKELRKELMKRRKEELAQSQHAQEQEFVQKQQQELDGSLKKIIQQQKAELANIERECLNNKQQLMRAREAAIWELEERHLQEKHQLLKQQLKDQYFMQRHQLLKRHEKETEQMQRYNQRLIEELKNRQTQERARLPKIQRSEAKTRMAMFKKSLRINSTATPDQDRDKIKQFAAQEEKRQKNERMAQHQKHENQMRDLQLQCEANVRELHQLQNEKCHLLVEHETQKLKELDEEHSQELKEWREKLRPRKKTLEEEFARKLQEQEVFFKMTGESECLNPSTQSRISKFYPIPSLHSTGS

[14] = biological target: Dual specificity mitogen-activated protein kinase kinase 2 (Homo sapiens, UniProt P36507); assay: Navigating the Kinome. Panel member name: MAP2K2; format: functional
Sequence of Dual specificity mitogen-activated protein kinase kinase 2 (P36507 whole entry): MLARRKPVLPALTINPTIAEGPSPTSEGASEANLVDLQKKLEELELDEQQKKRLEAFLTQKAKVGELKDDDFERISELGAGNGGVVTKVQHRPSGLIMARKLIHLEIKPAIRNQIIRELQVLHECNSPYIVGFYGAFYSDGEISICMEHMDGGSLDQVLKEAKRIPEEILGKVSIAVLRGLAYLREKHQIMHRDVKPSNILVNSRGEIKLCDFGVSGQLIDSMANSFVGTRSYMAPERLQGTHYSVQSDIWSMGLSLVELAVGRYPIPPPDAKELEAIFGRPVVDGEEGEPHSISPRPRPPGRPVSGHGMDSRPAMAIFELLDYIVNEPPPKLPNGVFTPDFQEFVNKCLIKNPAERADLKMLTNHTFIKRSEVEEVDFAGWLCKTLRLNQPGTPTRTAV

[15] = biological target: Tyrosine-protein kinase FRK (Homo sapiens, UniProt P42685); format: functional;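 also: FRK tested as one member of a kinome panel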
Sequence of Tyrosine-protein kinase FRK (P42685 whole entry): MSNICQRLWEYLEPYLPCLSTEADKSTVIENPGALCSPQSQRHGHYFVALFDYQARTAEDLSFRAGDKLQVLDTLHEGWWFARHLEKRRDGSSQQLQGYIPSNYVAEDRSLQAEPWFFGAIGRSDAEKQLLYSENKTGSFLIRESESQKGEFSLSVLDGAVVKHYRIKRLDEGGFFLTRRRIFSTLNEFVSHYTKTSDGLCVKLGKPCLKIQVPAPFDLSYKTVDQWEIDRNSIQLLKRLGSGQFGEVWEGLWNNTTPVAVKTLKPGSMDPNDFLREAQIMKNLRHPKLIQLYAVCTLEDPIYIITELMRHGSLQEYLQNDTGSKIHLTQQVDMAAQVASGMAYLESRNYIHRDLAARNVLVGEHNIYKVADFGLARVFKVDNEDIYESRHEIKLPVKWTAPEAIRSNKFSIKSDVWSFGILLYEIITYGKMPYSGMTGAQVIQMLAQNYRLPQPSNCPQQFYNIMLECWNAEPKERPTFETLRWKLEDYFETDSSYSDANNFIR

[16] = biological target: Bifunctional protein GlmU (Mycobacterium tuberculosis, UniProt P9WMN3); assay: Inhibitors of Mycobacterial Glucosamine-1-phosphate acetyl transferase (GlmU). Secondary screen.; design: species or system Mycobacterium tuberculosis H37Rv
[17] = biological target: Troponin, cardiac muscle (Homo sapiens, UniProt P19429+P45379+P63316); assay: inhibitors of cardiac thin filament calcium sensitivity, dose response, biochemical, fluorescence, cardiac regulated thin filaments, triplicate IC50 (AID 504742); format: protein-complex assay

O=C(NN1C(=O)CSC1=S)C(=O)NN1C(=O)CSC1=S
IC50 [1]: 4.36 µM (active)

Cc1ccc2[nH]c(/C(C#N)=C/c3ccc(O)c(O)c3)nc2c1
IC50 [2]: 28.1 µM (active)
IC50 [3]: 24.3 µM (active)

CN(C)S(=O)(=O)Oc1cccc(C(=O)Nc2ccc(Cl)c(Cl)c2)c1
AC50 [4]: 8.64 µM (active)
IC50 [2]: 52.2 µM (active)
IC50 [3]: 19.6 µM (active)

COC(=O)C1CN(C#N)N(c2ccc(Cl)cc2)C12c1ccccc1-c1ccccc12 (stereo not given)
AC50 [5]: < 0.26 µM (active)

Nc1noc2cccc(-c3cccc(O)c3)c12
Ki [6]: 6.31 µM (active)
Ki [7]: > 25.1 µM (inactive)
Ki [8]: > 25.1 µM (inactive)
Ki [9]: > 1.58 µM (inactive)
Ki [10]: > 6.31 µM (inactive)
Ki [11]: > 10 µM (inactive)
Ki [12]: 20 µM (active)
Ki [13]: > 10 µM (inactive)
Ki [14]: 7.94 µM (active)
Ki [15]: 0.0398 µM (active)

O=C1NC(=S)S/C1=C\C=C\c1ccc([N+](=O)[O-])o1
IC50 [16]: 19.1 µM (active)
IC50 [17]: 40.2 µM (inactive)
IC50 [1]: > 122 µM (inactive)
